Laboratory results reported in patent US8680133B2, “Alkyl indole-3-carbinol-derived antitumor agents” (The Ohio State University Research Foundation, priority 2009, dated 2014).

Experiments:
UACC-62 = test: NCI60 screening, Melanoma, UACC-62; assay type: cell-based, human
RPMl-8226 = test: NCI60 screening, Leukemia, RPMl-8226; assay type: cell-based, human
PC-3 xenograft tumor = PC-3 xenograft tumor growth in nude mice, 450 ppm in the diet; assay type: in vivo; settings: 450 ppm in AIN-76A rodent diet, vs control diet, P<0.05
Experimental: FIG. 3 provides a graph showing the in vivo efficacy of dietary OSU-A9M at 450 ppm in a rodent diet in suppressing PC-3 xenograft tumor growth in nude mice.
Given the increased potency of OSU-A9M compared to the other lead derivatives, an experimental diet was formulated. An AIN-76A rodent diet (American Institute of Nutrition; including primarily casein, sucrose, and corn starch) containing 450 ppm OSU-A9M was made to deliver approximately 50 mg/kg of drug per day to each mouse estimated by food consumption and body weight measurements.

SW-620 = test: NCI60 screening, Colon Cancer, SW-620; assay type: cell-based, human
SF-295 = test: NCI60 screening, CNS Cancer, SF-295; assay type: cell-based, human
SK-MEL-2 = test: NCI60 screening, Melanoma, SK-MEL-2; assay type: cell-based, human
SK-OV-3 = test: NCI60 screening, Ovarian Cancer, SK-OV-3; assay type: cell-based, human
IGROV1 = test: NCI60 screening, Ovarian Cancer, IGROV1; assay type: cell-based, human
HT29 = test: NCI60 screening, Colon Cancer, HT29; assay type: cell-based, human
MDA-MB-468 = test: NCI60 screening, Breast Cancer, MDA-MB-468; assay type: cell-based, human
MDA-MB-231/ATCC = test: NCI60 screening, Breast Cancer, MDA-MB-231/ATCC; assay type: cell-based, human
A549/ATCC = test: NCI60 screening, Non-Small Cell Lung Cancer, A549/ATCC; assay type: cell-based, human
DU-145 = test: NCI60 screening, Prostate Cancer, DU-145; assay type: cell-based, human
RXF 393 = test: NCI60 screening, Renal Cancer, RXF 393; assay type: cell-based, human
SK-MEL-5 = test: NCI60 screening, Melanoma, SK-MEL-5; assay type: cell-based, human
T-47D = test: NCI60 screening, Breast Cancer, T-47D; assay type: cell-based, human
M14 = test: NCI60 screening, Melanoma, M14; assay type: cell-based, human
[1] = Homo sapiens, read-out: LC50 (the source's name)

Structure (SMILES): Cc1ccc2c(c1)c(CO)cn2S(=O)(=O)c1ccc(Cl)c([N+](=O)[O-])c1 [OSU-A9M, [1-(4-chloro-3-nitro-benzenesulfonyl)-5-methyl-1H-indol-3-yl]-methanol]
- TGI (UACC-62): 3.19E−6
- GI50 (UACC-62; Homo sapiens): 1.67 µM
- CC50 (UACC-62; [1]): 6.07 µM
- Percent Growth (UACC-62; Log10 Concentration −4.0): −93%
- Percent Growth (UACC-62; Log10 Concentration −5.0): −89%
- Percent Growth (UACC-62; Log10 Concentration −6.0): 90%
- Percent Growth (UACC-62; Log10 Concentration −7.0): 91%
- Percent Growth (UACC-62; Log10 Concentration −8.0): 93%
- TGI (RPMl-8226): 3.80E−6
- GI50 (RPMl-8226; Homo sapiens): 1.58 µM
- CC50 (RPMl-8226; [1]): 9.14 µM
- Percent Growth (RPMl-8226; Log10 Concentration −4.0): −68%
- Percent Growth (RPMl-8226; Log10 Concentration −5.0): −55%
- Percent Growth (RPMl-8226; Log10 Concentration −6.0): 76%
- Percent Growth (RPMl-8226; Log10 Concentration −7.0): 84%
- Percent Growth (RPMl-8226; Log10 Concentration −8.0): 93%
- Suppression of the growth of PC-3 xenograft tumors (PC-3 xenograft tumor): 59.6%
- TGI (SW-620): 2.44E−6
- GI50 (SW-620; Homo sapiens): 1.21 µM
- CC50 (SW-620; [1]): 4.94 µM
- Percent Growth (SW-620; Log10 Concentration −4.0): −100%
- Percent Growth (SW-620; Log10 Concentration −5.0): −100%
- Percent Growth (SW-620; Log10 Concentration −6.0): 63%
- Percent Growth (SW-620; Log10 Concentration −7.0): 90%
- Percent Growth (SW-620; Log10 Concentration −8.0): 96%
- TGI (SF-295): 3.07E−6
- GI50 (SF-295; Homo sapiens): 1.62 µM
- CC50 (SF-295; [1]): 5.81 µM
- Percent Growth (SF-295; Log10 Concentration −4.0): −86%
- Percent Growth (SF-295; Log10 Concentration −5.0): −93%
- Percent Growth (SF-295; Log10 Concentration −6.0): 88%
- Percent Growth (SF-295; Log10 Concentration −7.0): 91%
- Percent Growth (SF-295; Log10 Concentration −8.0): 77%
- TGI (SK-MEL-2): 3.04E−6
- GI50 (SK-MEL-2; Homo sapiens): 1.6 µM
- CC50 (SK-MEL-2; [1]): 5.78 µM
- Percent Growth (SK-MEL-2; Log10 Concentration −4.0): −93%
- Percent Growth (SK-MEL-2; Log10 Concentration −5.0): −93%
- Percent Growth (SK-MEL-2; Log10 Concentration −6.0): 86%
- Percent Growth (SK-MEL-2; Log10 Concentration −7.0): 96%
- Percent Growth (SK-MEL-2; Log10 Concentration −8.0): 102%
- TGI (SK-OV-3): 3.06E−6
- GI50 (SK-OV-3; Homo sapiens): 1.67 µM
- CC50 (SK-OV-3; [1]): 5.62 µM
- Percent Growth (SK-OV-3; Log10 Concentration −4.0): −100%
- Percent Growth (SK-OV-3; Log10 Concentration −5.0): −97%
- Percent Growth (SK-OV-3; Log10 Concentration −6.0): 92%
- Percent Growth (SK-OV-3; Log10 Concentration −7.0): 97%
- Percent Growth (SK-OV-3; Log10 Concentration −8.0): 95%
- TGI (IGROV1): 1.23E−6
- GI50 (IGROV1; Homo sapiens, IGROV-1): 0.349 µM
- CC50 (IGROV1; Homo sapiens, IGROV-1, read-out: LC50 (the source's name)): 3.5 µM
- Percent Growth (IGROV1; Log10 Concentration −4.0): −100%
- Percent Growth (IGROV1; Log10 Concentration −5.0): −100%
- Percent Growth (IGROV1; Log10 Concentration −6.0): 10%
- Percent Growth (IGROV1; Log10 Concentration −7.0): 98%
- Percent Growth (IGROV1; Log10 Concentration −8.0): 86%
- TGI (HT29): 1.59E−6
- GI50 (HT29; Homo sapiens, HT-29): 0.434 µM
- CC50 (HT29; Homo sapiens, HT-29, read-out: LC50 (the source's name)): 3.98 µM
- Percent Growth (HT29; Log10 Concentration −4.0): −100%
- Percent Growth (HT29; Log10 Concentration −5.0): −100%
- Percent Growth (HT29; Log10 Concentration −6.0): 25%
- Percent Growth (HT29; Log10 Concentration −7.0): 94%
- Percent Growth (HT29; Log10 Concentration −8.0): 91%
- TGI (MDA-MB-468): 2.18E−6
- GI50 (MDA-MB-468; Homo sapiens): 0.979 µM
- CC50 (MDA-MB-468; [1]): 4.78 µM
- Percent Growth (MDA-MB-468; Log10 Concentration −4.0): −95%
- Percent Growth (MDA-MB-468; Log10 Concentration −5.0): −97%
- Percent Growth (MDA-MB-468; Log10 Concentration −6.0): 50%
- Percent Growth (MDA-MB-468; Log10 Concentration −7.0): 86%
- Percent Growth (MDA-MB-468; Log10 Concentration −8.0): 90%
- TGI (MDA-MB-231/ATCC): 2.96E−6
- GI50 (MDA-MB-231/ATCC; Homo sapiens): 1.44 µM
- CC50 (MDA-MB-231/ATCC; [1]): 6.1 µM
- Percent Growth (MDA-MB-231/ATCC; Log10 Concentration −4.0): −78%
- Percent Growth (MDA-MB-231/ATCC; Log10 Concentration −5.0): −84%
- Percent Growth (MDA-MB-231/ATCC; Log10 Concentration −6.0): 75%
- Percent Growth (MDA-MB-231/ATCC; Log10 Concentration −7.0): 91%
- Percent Growth (MDA-MB-231/ATCC; Log10 Concentration −8.0): 98%
- TGI (A549/ATCC): 4.89E−6
- GI50 (A549/ATCC; Homo sapiens): 2.05 µM
- CC50 (A549/ATCC; [1]): > 100 µM
- Percent Growth (A549/ATCC; Log10 Concentration −4.0): −47%
- Percent Growth (A549/ATCC; Log10 Concentration −5.0): −41%
- Percent Growth (A549/ATCC; Log10 Concentration −6.0): 91%
- Percent Growth (A549/ATCC; Log10 Concentration −7.0): 94%
- Percent Growth (A549/ATCC; Log10 Concentration −8.0): 95%
- TGI (DU-145): 3.04E−6
- GI50 (DU-145; Homo sapiens): 1.67 µM
- CC50 (DU-145; [1]): 5.51 µM
- Percent Growth (DU-145; Log10 Concentration −4.0): −100%
- Percent Growth (DU-145; Log10 Concentration −5.0): −100%
- Percent Growth (DU-145; Log10 Concentration −6.0): 93%
- Percent Growth (DU-145; Log10 Concentration −7.0): 95%
- Percent Growth (DU-145; Log10 Concentration −8.0): 103%
- TGI (RXF 393): 4.10E−6
- GI50 (RXF 393; Homo sapiens): 1.94 µM
- CC50 (RXF 393; [1]): 8.65 µM
- Percent Growth (RXF 393; Log10 Concentration −4.0): −85%
- Percent Growth (RXF 393; Log10 Concentration −5.0): −60%
- Percent Growth (RXF 393; Log10 Concentration −6.0): 94%
- Percent Growth (RXF 393; Log10 Concentration −7.0): 102%
- Percent Growth (RXF 393; Log10 Concentration −8.0): 101%
- TGI (SK-MEL-5): 2.83E−6
- GI50 (SK-MEL-5; Homo sapiens): 1.5 µM
- CC50 (SK-MEL-5; [1]): 5.32 µM
- Percent Growth (SK-MEL-5; Log10 Concentration −4.0): −100%
- Percent Growth (SK-MEL-5; Log10 Concentration −5.0): −100%
- Percent Growth (SK-MEL-5; Log10 Concentration −6.0): 82%
- Percent Growth (SK-MEL-5; Log10 Concentration −7.0): 92%
- Percent Growth (SK-MEL-5; Log10 Concentration −8.0): 96%
- TGI (T-47D): 2.91E−6
- GI50 (T-47D; Homo sapiens, T47D): 1.12 µM
- CC50 (T-47D; Homo sapiens, T47D, read-out: LC50 (the source's name)): 7.54 µM
- Percent Growth (T-47D; Log10 Concentration −4.0): −61%
- Percent Growth (T-47D; Log10 Concentration −5.0): −65%
- Percent Growth (T-47D; Log10 Concentration −6.0): 56%
- Percent Growth (T-47D; Log10 Concentration −7.0): 93%
- Percent Growth (T-47D; Log10 Concentration −8.0): 95%
- TGI (M14): 2.88E−6
- GI50 (M14; Homo sapiens): 1.52 µM
- CC50 (M14; [1]): 5.43 µM
- Percent Growth (M14; Log10 Concentration −4.0): −100%
- Percent Growth (M14; Log10 Concentration −5.0): −98%
- Percent Growth (M14; Log10 Concentration −6.0): 83%
- Percent Growth (M14; Log10 Concentration −7.0): 97%
- Percent Growth (M14; Log10 Concentration −8.0): 95%
